{
  "source": "patent US11760775B2",
  "about": "“Steroids and protein-conjugates thereof” (Regeneron Pharmaceuticals, Inc., priority 2016, dated 2023)",
  "key": {"[1]": {"biological_target": "Glucocorticoid Receptor (GR) (Homo sapiens (Human), UniProt P04150)", "sequence (P04150 524-758)": "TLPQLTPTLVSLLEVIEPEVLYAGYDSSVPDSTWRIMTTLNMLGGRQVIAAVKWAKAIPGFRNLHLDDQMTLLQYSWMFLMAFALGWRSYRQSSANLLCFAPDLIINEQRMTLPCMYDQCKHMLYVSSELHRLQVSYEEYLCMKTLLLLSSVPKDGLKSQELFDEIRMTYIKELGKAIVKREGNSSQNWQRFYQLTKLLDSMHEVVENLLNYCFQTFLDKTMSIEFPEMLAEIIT", "test": "LanthaScreen TR-FRET GR Competitive Binding Assay (cell free)"}, "[2]": {"tested_on": "GR activation in 293/PRLR/GRE-Luc cells (HEK293/9xUAS-Luc2P/pBind-GR/PRLR-HA high cells)", "test": "GR co-activator luciferase reporter cell based assay in 293/PRLR/GRE-Luc cells", "set-up": "species or system human", "settings": "for Emax: HEK293, read-out: Activation (fold activation relative to Budesonide) in HEK293/9xUAS-Luc2P/pBind-GR/PRLR-HA high cells; for HEK293/9xUAS-Luc2P/pBind-GR/PRLR-HA high cells activation relative to Budesonide: fold activation vs Budesonide", "source_text": "Bioassays described herein were used to assess the efficacy of free steroids and anti-PRLR-ncADCs. In one example, the bioassay assessed the activity of steroids, after internalization of a site-specific anti-PRLR-GC steroid ADC into cells, to bind to pBIND-GR and subsequent luciferase reporter activation. […] Then such stable cell line was further transfected with a chimeric receptor consisting of a GR ligand binding domain fused to the yeast Gal4 DNA binding domain (pBind-GR, Promega Cat #E1581), and a Gal4 upstream activator sequence (9×Gal4UAS-Luc2P) that drives luciferase gene expression.\n(§1) For this assay, 20,000 cells were seeded in 96-well plates in media containing DMEM supplemented with 10% FBS and pencillin/streptomycin (complete media) and grown overnight at 37° C. in 5% CO2. […] Luciferase activity was determined by addition of OneGlo™ reagent (Promega, Cat #E6130) and relative light units (RLUs) were measured on a Victor luminometer (Perkin Elmer). The EC50 values were determined from a four-parameter logistic equation over a 10 point response curve using GraphPad Prism.\nas §1, with “One-Glo™” for “OneGlo™”, “10-point” for “10 point”, “Prism. […] Minimal activation in this assay is defined as less than 10% of the maximal activation measured with the free payload.” for “Prism.”"}, "[3]": {"settings": "Homo sapiens, 72 hours of incubation"}, "[4]": {"settings": "Homo sapiens, HEK293, 72 hours of incubation, read-out: HEK293/9xUAS-Luc2P/pBind-GR/PRLR-HA high cells EC50"}, "[5]": {"settings": "Homo sapiens, HEK293, read-out: HEK293/9xUAS-Luc2P/pBind-GR/PRLR-HA high cells EC50"}},
  "note": "Counter-ions that a name gives are not always drawn. Like-named read-outs stand apart in the source and are kept apart here.",
  "data": [
    {"compound": "C[C@]12C=CC(=O)C=C1CC[C@@H]1[C@@H]2[C@@H](O)C[C@@]2(C)[C@H]1C[C@H]1O[C@@H](c3ccc(N)cc3)O[C@]12C(=O)CO", "note": "[7-1 R, (1S,2S,4R,6R,8S,9S,11S,12S,13R)-6-(4-Aminophenyl)-11-hydroxy-8-(2-hydroxyacetyl)-9,13-dimethyl-5,7-dioxapentacyclo[10.8.0.0^2,90.0^4,80.0^13,18]icosa-14,17-dien-16-one]", "values": [
      {"measurement": "IC50", "setting": "[1]", "result": "10 to 100", "unit": "nM"},
      {"measurement": "Emax", "setting": "[2]; [3]", "result": "> 75", "unit": "%"},
      {"measurement": "EC50", "setting": "[2]; [4]", "result": "< 10", "unit": "nM"}
    ]},
    {"compound": "C[C@]12C=CC(=O)C=C1CC[C@@H]1[C@@H]2[C@@H](O)C[C@@]2(C)[C@H]1C[C@H]1O[C@H](c3ccc(N)cc3)O[C@]12C(=O)CO", "note": "[7-1 S, (1S,2S,4R,6S,8S,9S,11S,12S,13R)-6-(4 Aminophenyl)-11-hydroxy-8-(2-hydroxyacetyl)-9,13-dimethyl-5,7-dioxapentacyclo[10.8.0.0^2,90.0^4,80.0^13,18]icosa-14,17-dien-16-one]", "values": [
      {"measurement": "IC50", "setting": "[1]", "result": "< 10", "unit": "nM"},
      {"measurement": "Emax", "setting": "[2]; [3]", "result": "20 to 75", "unit": "%"},
      {"measurement": "EC50", "setting": "[2]; [4]", "result": "> 100", "unit": "nM"}
    ]},
    {"compound": "CC(C)C(=O)OCC(=O)[C@@]12O[C@H](c3ccc(N)cc3)O[C@@H]1C[C@H]1[C@@H]3CCC4=CC(=O)C=C[C@]4(C)[C@H]3[C@@H](O)C[C@@]12C", "note": "[8-1 R, 2[(1S,2S,4R,8S,9S,11S,12S,13R)-6-(4-Aminophenyl)-11-hydroxy-9,13-dimethyl-16-oxo-5,7-dioxapentacyclo[10.8.0.0^2,90.0^4,80.0^13,18]icosa-14,17-dien-8-yl]-2-oxoethyl 2-methylpropanoate]", "values": [
      {"measurement": "Activation (fold activation relative to Budesonide) in HEK293/9xUAS-Luc2P/pBind-GR/PRLR-HA high cells", "setting": "[2]; 72 hours of incubation", "result": "full activation"},
      {"measurement": "EC50", "setting": "[2]; [4]", "result": "10 to 100", "unit": "nM"}
    ]},
    {"compound": "CCCC1O[C@@H]2C[C@H]3[C@@H]4C[C@H](F)C5=CC(=O)C=C[C@]5(C)[C@@]4(F)[C@@H](O)C[C@]3(C)[C@]2(C(=O)CNc2ccc(N)cc2)O1", "note": "(stereo partly drawn) [Compound 5-I, (1S,2S,4R,8S,9S,11S,12R,13S,19S)-8-{2-[(4-Aminophenyl)amino]acetyl}-12,19-difluoro-11-hydroxy-9,13-dimethyl-6-propyl-5,7-dioxapentacyclo[10.8.0.0^2,90.0^4,80.0^13,18]icosa-14,17-dien-16-one Trifluoroacetate]", "values": [
      {"measurement": "EC50", "setting": "[2]; [5]", "result": "< 10", "unit": "nM"},
      {"measurement": "HEK293/9xUAS-Luc2P/pBind-GR/PRLR-HA high cells activation relative to Budesonide", "setting": "[2]", "result": "Full"}
    ]},
    {"compound": "CCCC1O[C@@H]2C[C@H]3[C@@H]4C[C@H](F)C5=CC(=O)C=C[C@]5(C)[C@@]4(F)[C@@H](O)C[C@]3(C)[C@]2(C(=O)COc2ccc(N)c(F)c2)O1", "note": "(stereo partly drawn) [Compound 6-III, (1S,2S,4R,8S,9S,11S,12R,13S,19S)-8-[2-(4-Amino-3-fluorophenoxy)acetyl]-12,19-difluoro-11-hydroxy-9,13-dimethyl-6-propyl-5,7-dioxapentacyclo[10.8.0.0^2,90.0^4,8.0^13,18]icosa-14,17-dien-16-one]", "values": [
      {"measurement": "EC50", "setting": "[2]; [5]", "result": "< 10", "unit": "nM"}
    ]},
    {"compound": "C[C@]12C=CC(=O)C=C1CC[C@@H]1[C@@H]2[C@@H](O)C[C@@]2(C)[C@H]1C[C@H]1O[C@@H](c3ccc(N)cc3)O[C@]12C(=O)CO", "note": "[Compound 7-1R]", "values": [
      {"measurement": "GRE-Luc activation", "setting": "[2]; 293/PRLR/GRE-Luc cells, 72 hours", "result": "full GRE-Luc activation"},
      {"measurement": "EC50", "setting": "[2]; 293/PRLR/GRE-Luc cells, 72 hours, read-out: EC50 of GRE-Luc activation", "result": "10 to 100", "unit": "nM"}
    ]},
    {"compound": "CC(=O)OCC(=O)[C@@]1(OC(C)=O)[C@@H](C)C[C@H]2[C@@H]3C[C@H](F)C4=CC(=O)C=C[C@]4(C)[C@@]3(F)[C@@H](O)C[C@@]21C", "note": "[Diflorasone, diflorasone, reference compound]", "values": [
      {"measurement": "Emax", "setting": "[2]; [3]", "result": "> 75", "unit": "%"},
      {"measurement": "EC50", "setting": "[2]; [4]", "result": "< 10", "unit": "nM"}
    ]},
    {"compound": "C[C@@H]1C[C@H]2[C@@H]3CCC4=CC(=O)C=C[C@]4(C)[C@@]3(F)[C@@H](O)C[C@]2(C)[C@@]1(O)C(=O)CO", "note": "[compound 1c, dexamethasone, reference compound]", "values": [
      {"measurement": "EC50", "setting": "[2]; 293/PRLR/GRE-Luc cells, 72 hours, ADCs with or without cyclodextrin linkers, read-out: EC50", "result": 8.4, "unit": "nM"},
      {"measurement": "Maximal Activation", "setting": "[2]; 293/PRLR/GRE-Luc cells, 72 hours, relative to free payload", "result": "Full (Full activation in this assay is defined between 90 and 100% of the maximal activation measured with the free payload)"}
    ]},
    {"compound": "(6S,8S,9S,10R,11S,13S,14S,17R)-17-(2-(4-Aminophenoxy)acetyl)-11,17-dihydroxy-6,10,13-trimethyl-6,7,8,9,10,11,12,13,14,15,16,17-dodecahydro-3H-cyclopenta[a]phenanthren-3-one [Compound 6-VI]", "values": [
      {"measurement": "HEK293/9xUAS-Luc2P/pBind-GR/PRLR-HA high cells activation relative to Budesonide", "setting": "[2]", "result": "Full"},
      {"measurement": "EC50", "setting": "[2]; read-out: HEK293/9xUAS-Luc2P/pBind-GR/PRLR-HA high cells EC50", "result": "< 10", "unit": "nM"}
    ]}
  ]
}
